According to patent US20260355199A1, “COMPOSITIONS AND METHODS FOR TREATING OR PREVENTING NONALCOHOLIC STEATOHEPATITIS (NASH), ANOREXIA, DEPRESSION, ENDOMETRIOSIS, AND OTHER DISEASES OR DISORDERS” (priority 2022, published 2026):
Entries after “also recorded” stand apart in the source; their conditions may differ.

Experiments:
THP-1 cells = assay: TUNEL assay in THP-1 cells; format: cell-based, human; details: THP-1, 10 μM, 48 h
Procedure: For TET3 expression restoration experiments, cells seeded in 24-well plates were infected with Ad-GFP or Ad-TET3 at 4000 gc/cell. Following 16 h of infection, vehicle or Bobcat339 were added at a final concentration of 10 μM. Protein and RNA were isolated 48 hours later and analyzed.
These were performed using the In Situ Cell Death Detection Kit (Sigma Aldrich, 12156792910). Briefly, cells were fixed with 4% paraformaldehyde in PBS for 1 h at RT and rinsed with PBS, followed by permeabilization with 0.1% Triton X-100 in 0.1% sodium citrate for 2 min on ice. TUNEL reaction mixture was added and incubation was carried out at 37 °C for 60 min. DAPI was added to counter-stain the cells for 1 min. The slides were coverslipped and scoped using a Keyence BZ-X700 fluorescence microscope.

TET1 = details: cited from earlier work
let-7a = let-7a level in mouse peritoneal macrophages; format: cell-based; details: 10 μM, 48 h
Procedure: For cultured mouse peritoneal macrophages, cells were primed with 30 ng/ml of TGF-β1 (R&D Systems, 7666-MB0-005) for 48 h (to increase TET3 expression) before Bobcat339 treatment. Bobcat339 (or DMSO) was added at a final concentration of 10 μM, followed by RNA and protein extraction at time points indicated in the figure legends.
For let-7a qPCR, 10 ng of total RNA was reverse transcribed to cDNA in a reaction volume of 10 μl using miRCURY LNA RT Kit (QIAGEN, 339340). Quantitative real-time PCR reactions were carried out using miRCURY LNA SYBR Green PCR Kit (QIAGEN, 339346) and a let-7a-specific primer (Has-Let-7a-5p miRCURY LNA miRNA PCR Assay, QIAGEN, 339306/YP00205727) in a Bio-Rad iCycler. Gene expression levels were normalized against U6 (U6 snRNA v2 miRURY LNA miRNA PCR Assay, QIAGEN, 339306/YPO2119464, QIAGEN).

[1] = tested on: activity-based anorexia (ABA) mice; assay: Activity-based anorexia (ABA) model; format: in vivo, mouse
Description: The importance of AgRP neurons in psychiatric conditions such as anorexia was further underscored by a recent report showing that chemogenetic activation of AgRP neurons in mice during ABA attenuated bodyweight loss with reduction in excessive physical activity (Hickey et al., 2022, Mol Psychiatry). […] Thus, peripubertal female mice were exposed to the ABA paradigm as previously described (Miletta, M. C. et al., 2020, Nature Metabolism, 2:1204-1211). Mice were singly housed at postnatal day 36 (P36) with ad libitum access to food, water, and a running wheel. After 4 days of acclimation at P40, mice were food restricted with free access to food for only 2 h daily for 3 days. At P40 and before the onset of food restriction, mice received first intraperitoneal (i.p.) injection of Bobcat339 or vehicle, with second and third injections performed at P47 and P54, respectively (FIG. 17A).
Bobcat339 powder (Sigma-Aldrich, SML2611) was freshly dissolved in DMSO (vehicle) at a concentration of 50 mg/mL and filtered through a 0.22 micron. It was further diluted with 1×PBS to a final concentration of 0.5 mg/mL before injections. Mice were injected intraperitoneally with Bobcat339 at 1 mg/kg, 2.5 mg/kg, or 4 mg/kg.
On P36, animals were single housed with free access to food and water and 24 h access to a running wheel. After 4 days of acclimation, on P40, all food was removed from the cage and returned only for 2 h daily (free food access from 19:00 to 21:00) and 24 h access to a running wheel for 3 days. On P43, 24 h ad libitum access to food was returned and the running wheel access was blocked to allow the animals to recover. The animals were allowed to recover for at least 1 week before undergoing behavioral testing. Continuous multiday analysis of running wheel activity was recorded using VitalView Data Acquisition System software version 5.1 (Starr Life Science). Food intake was measured after measurement of the food pellets before and after the 2 h food restriction. Body weight was monitored in the morning. Body composition was assessed using EchoMRI analysis.

Nc1nc(=O)n(-c2cccc(-c3ccccc3)c2)cc1Cl [Bobcat339, 4-Amino-1-[1,1′-biphenyl]-3-yl-5-chloro-2(1H)-pyrimidinone]
apoptosis (TUNEL) (THP-1 cells): a significant increase in apoptotic cell death
inhibitory activity against TET1 (TET1; in the absence of contaminating copper (II)): negligible inhibitory activity
inhibition of enzymatic activity of TET1 (TET1; initially reported): inhibit the enzymatic activity
let-7a level (let-7a): higher levels of let-7a
lethality in the ABA model ([1]; ABA): diminished lethality
body weight, daily food intake, and running wheel account ([1]; ABA, acclimation): no differences
body weight ([1]; ABA, food restriction): able to maintain their body weight throughout the experiment
food intake ([1]; ABA, food restriction): increased feeding; also recorded: a significant increase in food intake
wheel running ([1]; ABA, food restriction): decreased compulsive running; also recorded: decline in compulsive wheel running
body composition ([1]; end of the recovery period): No differences in body composition
onset of appetite-stimulating and anti-stress effects ([1]; i.p.): ≤ 24 h
duration of appetite-stimulating and anti-stress effects ([1]; single i.p. injection): lasted for at least one week
therapeutic effect in a mouse model of anorexia ([1]; summary): elicited therapeutic effects in a mouse model of anorexia
